SMILES | solubility (mole fraction) (in n-hexane, 293.15 K) | solubility (mole fraction) (in n-hexane, 298.15 K) | solubility (mole fraction) (in n-hexane, 303.15 K) | solubility (mole fraction) (in n-hexane, 308.15 K) | solubility (mole fraction) (in n-hexane, 313.15 K) | solubility (mole fraction) (in n-octanol, 293.15 K) | solubility (mole fraction) (in n-octanol, 298.15 K) | solubility (mole fraction) (in n-octanol, 303.15 K) | solubility (mole fraction) (in n-octanol, 308.15 K) | solubility (mole fraction) (in n-octanol, 313.15 K)
Br.CC(C)c1ccc(NC2=NCCC3(CCCCC3)[Se]2)cc1 | 4.69e-06 | 5.82e-06 | 7.39e-06 | 8.84e-06 | 1.11e-05 | 0.0484 | 0.0551 | 0.0647 | 0.0728 | 0.0831
Br.Fc1ccc(NC2=NCCC3(CCCCC3)[Se]2)cc1 | 1.27e-06 | 1.59e-06 | 1.9e-06 | 2.35e-06 | 2.89e-06 | 0.003 | 0.0036 | 0.0042 | 0.0048 | 0.0055
Br.c1ccc(NC2=NCCC3(CCCCC3)[Se]2)cc1 | 4.94e-06 | 5.94e-06 | 7.1e-06 | 8.46e-06 | 9.98e-06 | 0.0186 | 0.0229 | 0.0278 | 0.0329 | 0.0385

From BigSolDB 2.1
